Usually Ki stands for the dissociation constant of the complex between target and ligand, obtained from inhibition or displacement. A higher Ki goes with a looser hold on the target.

Our source for the Ki values is patent US11891388B2 (Incyte Corporation, priority 2016, dated 2024).

Some results are limits rather than exact numbers.

The experiment concerns the target HPK1 (Homo sapiens, UniProt Q92918). As to the kind of experiment: HPK1 Kinase Binding Assay. Conditions: LanthaScreen tracer 222 binding, active HPK1, one hour incubation at 25° C. As for the experimental part:
A stock solution of 1 mM test compound was prepared in DMSO. The compound plate was prepared by 3-fold and 11-point serial dilutions. 0.1 μL of the compound in DMSO was transferred from the compound plate to the white 384 well polystyrene plates. The assay buffer contained 50 mM HEPES, pH 7.5, 0.01% Tween-20, 5 mM MgCl2, 0.01% BSA, and 5 mM DTT. 5 μl of 4 nM active HPK1 (SignalChem M23-11G) prepared in the buffer was added to the plate. The enzyme concentration given was based on the given stock concentration reported by the vender. 5 μl of 18 nM tracer 222 (ThermoFisher PV6121) and 4 nM LanthaScreen Eu-Anti GST antibody (ThermoFisher PV5595) were added. After one hour incubation at 25° C., the plates were read on a PHERAstar FS plate reader (BMG Labtech). Ki values were determined.
Background: TR-FRET usually uses a lanthanide donor and a delayed reading to cut background.
`CN1CCN(c2ccc(-c3n[nH]c4ccc(-c5ccccc5)nc34)cc2)CC1` [Example 1, 3-(4-(4-Methylpiperazin-1-yl)phenyl)-5-phenyl-1H-pyrazolo[4,3-b]pyridine]: the Ki is 100 to 500 nM. To `COc1ccccc1-c1ccc2[nH]nc(-c3ccc(N4CCN(C)CC4)cc3)c2n1` [Example 2] belongs 100 to 500 nM; to `CN1CCN(c2ccc(-c3n[nH]c4ccc(-c5ccccc5O)nc34)cc2)CC1` [Example 14, 2-(3-(4-(4-Methylpiperazin-1-yl)phenyl)-1H-pyrazolo[4,3-b]pyridin-5-yl)phenol], 100 to 500 nM. As for `CN1CCN(c2ccc(-c3n[nH]c4ccc(-c5cccc6c5OCC6)nc34)cc2)CC1` [Example 15, 5-(2,3-Dihydrobenzofuran-7-yl)-3-(4-(4-methylpiperazin-1-yl)phenyl)-1H-pyrazolo[4,3-b]pyridine], the figure is 100 to 500 nM; as for `CN1CCN(c2ccc(-c3n[nH]c4ccc(-c5cccc6c5OCCO6)nc34)cc2)CC1` [Example 16, 5-(2,3-Dihydrobenzo[b][1,4]dioxin-5-yl)-3-(4-(4-methylpiperazin-1-yl)phenyl)-1H-pyrazolo[4,3-b]pyridine], 100 to 500 nM; as for `CNC(=O)c1cccc(-c2ccc3[nH]nc(-c4ccc(N5CCN(C)CC5)cc4)c3n2)c1` [Example 17, N-Methyl-3-(3-(4-(4-methylpiperazin-1-yl)phenyl)-1H-pyrazolo[4,3-b]pyridin-5-yl)benzamide], 100 to 500 nM.

Turning to `CN1CCN(c2ccc(-c3n[nH]c4ccc(-c5cccc(N(C)C)c5)nc34)cc2)CC1` [Example 18, N,N-Dimethyl-3-(3-(4-(4-methylpiperazin-1-yl)phenyl)-1H-pyrazolo[4,3-b]pyridin-5-yl)aniline], the Ki was in the range of 500 to 10000 nM. In turn, `COC(=O)c1ccccc1-c1ccc2[nH]nc(-c3ccc(N4CCN(C)CC4)cc3)c2n1` [Example 20, Methyl 2-(3-(4-(4-methylpiperazin-1-yl)phenyl)-1H-pyrazolo[4,3-b]pyridin-5-yl)benzoate] registered an inhibition constant (Ki) of 500 to 10000 nM. Consider `CC(=O)Nc1ccccc1-c1ccc2[nH]nc(-c3ccc(N4CCN(C)CC4)cc3)c2n1` [Example 21, N-(2-(3-(4-(4-Methylpiperazin-1-yl)phenyl)-1H-pyrazolo[4,3-b]pyridin-5-yl)phenyl)acetamide], for which the inhibition constant (Ki) was 500 to 10000 nM.

In turn, `CN1CCN(c2ccc(-c3n[nH]c4ccc(-c5ccccc5-c5ccccc5)nc34)cc2)CC1` [Example 22, 5-(Biphenyl-2-yl)-3-(4-(4-methylpiperazin-1-yl)phenyl)-1H-pyrazolo[4,3-b]pyridine] showed a Ki of 100 to 500 nM. To `CN1CCN(c2ccc(-c3n[nH]c4ccc(-c5ccncc5)nc34)cc2)CC1` [Example 25, 3-(4-(4-Methylpiperazin-1-yl)phenyl)-5-(pyridin-4-yl)-1H-pyrazolo[4,3-b]pyridine] belongs 100 to 500 nM. As for `CN1CCN(c2ccc(-c3n[nH]c4ccc(-c5ccc(=O)n(C)c5)nc34)cc2)CC1` [Example 30, 1-Methyl-5-(3-(4-(4-methylpiperazin-1-yl)phenyl)-1H-pyrazolo[4,3-b]pyridin-5-yl)pyridin-2(1H)-one], the figure is 500 to 10000 nM; as for `CN1CCN(c2ccc(-c3n[nH]c4ccc(-c5cccc6ncccc56)nc34)cc2)CC1` [Example 36, 5-(3-(4-(4-Methylpiperazin-1-yl)phenyl)-1H-pyrazolo[4,3-b]pyridin-5-yl)quinoline], 100 to 500 nM.

Consider `CN1CCN(c2ccc(-c3n[nH]c4ccc(-c5cccc6c5CC(=O)N6)nc34)cc2)CC1` [Example 38, 4-(3-(4-(4-Methylpiperazin-1-yl)phenyl)-1H-pyrazolo[4,3-b]pyridin-5-yl)indolin-2-one], for which the Ki lay in the range of 100 to 500 nM. To `CN1CCN(c2ccc(-c3n[nH]c4ccc(-c5cccc6c5ccn6C)nc34)cc2)CC1` [Example 39, 5-(1-Methyl-1H-indol-4-yl)-3-(4-(4-methylpiperazin-1-yl)phenyl)-1H-pyrazolo[4,3-b]pyridine] belongs 100 to 500 nM; to `CCc1cn2cccc(-c3ccc4[nH]nc(-c5ccc(N6CCN(C)CC6)cc5)c4n3)c2n1` [Example 45, 5-(2-Ethylimidazo[1,2-a]pyridin-8-yl)-3-(4-(4-methylpiperazin-1-yl)phenyl)-1H-pyrazolo[4,3-b]pyridine], 100 to 500 nM; to `CN1CCN(c2ccc(-c3n[nH]c4ccc(-c5cccc6c5CCC6NCCO)nc34)cc2)CC1` (centres unmarked) [Example 49, 2-(4-(3-(4-(4-Methylpiperazin-1-yl)phenyl)-1H-pyrazolo[4,3-b]pyridin-5-yl)-2,3-dihydro-1H-inden-1-ylamino)ethanol], at most 100 nM.

For `Fc1ccccc1-c1ccc2[nH]nc(-c3ccccc3)c2n1` [Example 51, 5-(2-Fluorophenyl)-3-phenyl-1H-pyrazolo[4,3-b]pyridine], the Ki is 500 to 10000 nM.

The compound `Fc1ccccc1-c1ccc2[nH]nc(-c3ccncc3)c2n1` [Example 52, 5-(2-Fluorophenyl)-3-(pyridin-4-yl)-1H-pyrazolo[4,3-b]pyridine] had an inhibitory constant (Ki) of 500 to 10000 nM.

In the case of `CNC(=O)c1ccc(-c2n[nH]c3ccc(-c4ccccc4F)nc23)cc1` [Example 53, 4-(5-(2-Fluorophenyl)-1H-pyrazolo[4,3-b]pyridin-3-yl)-N-methylbenzamide], the Ki fell in the range of 100 to 500 nM. In turn, `Cn1cc(-c2n[nH]c3ccc(-c4ccccc4F)nc23)cn1` [Example 54] yielded a Ki of 100 to 500 nM.

Take `CN1CCN(C(=O)c2ccc(-c3n[nH]c4ccc(-c5ccccc5F)nc34)cc2)CC1` [Example 56, (4-(5-(2-Fluorophenyl)-1H-pyrazolo[4,3-b]pyridin-3-yl)phenyl)(4-methylpiperazin-1-yl)methanone]: the Ki is 500 to 10000 nM. As for `O=C(Nc1ccccc1)c1ccc(-c2n[nH]c3ccc(-c4ccccc4F)nc23)cc1` [Example 57, 4-(5-(2-Fluorophenyl)-1H-pyrazolo[4,3-b]pyridin-3-yl)-N-phenylbenzamide], the figure is 500 to 10000 nM; as for `Fc1ccccc1-c1ccc2[nH]nc(-c3cnn(C4CCNCC4)c3)c2n1` [Example 58, 5-(2-Fluorophenyl)-3-(1-(piperidin-4-yl)-1H-pyrazol-4-yl)-1H-pyrazolo[4,3-b]pyridine], 100 to 500 nM. As to `CS(=O)(=O)N1CCC(n2cc(-c3n[nH]c4ccc(-c5ccccc5F)nc34)cn2)CC1` [Example 59, 5-(2-Fluorophenyl)-3-(1-(1-(methylsulfonyl)piperidin-4-yl)-1H-pyrazol-4-yl)-1H-pyrazolo[4,3-b]pyridine], the Ki was in the range of 500 to 10000 nM.

For `CC(=O)N1CCC(n2cc(-c3n[nH]c4ccc(-c5ccccc5F)nc34)cn2)CC1` [Example 60, 1-(4-(4-(5-(2-Fluorophenyl)-1H-pyrazolo[4,3-b]pyridin-3-yl)-1H-pyrazol-1-yl)piperidin-1-yl)ethanone], the Ki fell in the range of 500 to 10000 nM.
